ChEMBL document CHEMBL1141539, “Neutral 5-substituted 4-indazolylaminoquinazolines as potent, orally active inhibitors of erbB2 receptor tyrosine kinase” (Bioorg Med Chem Lett, 2008)
Converted amounts (≈) assume the structure as drawn.

Tests used:
[1] = Solubility in aqueous phosphate buffer at pH 7.4 after 24 hrs; assay type: physicochemical
Phospholipidosis = assay: In vivo phospholipidosis in rat; assay type: ADME, organism-based
[2] = Volume of distribution at steady state in dog at 1 mg/kg, iv and 2 mg/kg, po; assay type: ADME, organism-based, Canis lupus familiaris; conditions: in vivo, read-out: Vdss
[3] = Volume of distribution at steady state in rat at 1 mg/kg, iv and 2 mg/kg, po; assay type: ADME, organism-based; conditions: in vivo, read-out: Vdss
[4] = Oral bioavailability in rat at 2 mg/kg; assay type: ADME, organism-based; conditions: in vivo
[5] = Oral bioavailability in dog at 2 mg/kg, po; assay type: ADME, organism-based, Canis lupus familiaris; conditions: in vivo
[6] = Distribution coefficient, log D at pH 7.4; assay type: physicochemical; conditions: octanol/water
[7] = Permeability across dog MDCK-MDR cell membrane; assay type: ADME, cell-based, Canis lupus familiaris; conditions: MDCK-MDR1

Work on C[C@@H](Oc1cccc2ncnc(Nc3ccc4c(cnn4Cc4nccs4)c3)c12)C(=O)N(C)C yielded a solubility at 24 h [1] of 29 µM (≈ 13.7 µg/mL).

C[C@@H](Oc1cccc2ncnc(Nc3ccc4c(cnn4Cc4ccccn4)c3)c12)C(N)=O gave a solubility at 24 h [1] of 3 µM (≈ 1.32 µg/mL).

With C[C@@H](Oc1cccc2ncnc(Nc3ccc4c(cnn4Cc4nccs4)c3)c12)C(=O)N1CCOCC1 the Phospholipidosis (Phospholipidosis) was “Not Active”, the Vd [2] was 3.1 L/kg and the Vd [3] was 2 L/kg. The bioavailability [4] was 50%, the bioavailability [5] was 36% and the solubility at 24 h [1] was 101 µM (≈ 52.1 µg/mL). The logD [6] was 2.6 and the Papp [7] was 10 ×10⁻⁶ cm/s.

C[C@@H](Oc1cccc2ncnc(Nc3ccc4c(cnn4Cc4cccc(F)c4)c3)c12)C(=O)N(C)C gave a solubility at 24 h [1] of 3 µM (≈ 1.45 µg/mL).

For CNC(=O)[C@@H](C)Oc1cccc2ncnc(Nc3ccc4c(cnn4Cc4ccccn4)c3)c12, the solubility at 24 h [1] was 4 µM (≈ 1.81 µg/mL).

C[C@@H](Oc1cccc2ncnc(Nc3ccc4c(cnn4Cc4cscn4)c3)c12)C(=O)N(C)C showed a solubility at 24 h [1] of 44 µM (≈ 20.8 µg/mL).

C[C@@H](Oc1cccc2ncnc(Nc3ccc4c(cnn4Cc4ccccn4)c3)c12)C(=O)N(C)C gave a Vd [2] of 2.3 L/kg, a Vd [3] of 2.1 L/kg and a bioavailability [4] of 36%. The bioavailability [5] was 40%, the solubility at 24 h [1] was 270 µM (≈ 126 µg/mL) and the logD [6] was 2.9.
